From US20240207258A1, “HETEROCYCLIC PDK1 INHIBITORS FOR USE TO TREAT CANCER” (Viracta Therapeutics, Inc., priority 2015, published 2024)
pEC50: −log10 of the molar value.

Tests used:
[1] = system: hematologic tumor cell lines; assay: MTS cell proliferation assay, panel of hematologic cancer cell lines; format: cell-based; details: range over 16 cell lines, FIG. 3; read-out: potency in the cell proliferation assay (EC50)
Procedure: Cell proliferation was measured using the CellTiter 96 Aqueous Non-Radioactive Cell Proliferation Assay (Promega). The CellTiter 96® AQueous Assay is composed of solutions of a tetrazolium compound [3-(4,5-dimethylthiazol-2-yl)-5-(3-carboxymethoxyphenyl)-2-(4-sulfophenyl)-2H-tetrazolium, inner salt; MTS] and an electron coupling reagent (phenazine methosulfate) PMS. MTS is bioreduced by cells into a formazan product that is soluble in tissue culture medium. The absorbance of the formazan product at 490 nm can be measured directly from assay plates without additional processing. The quantity of formazan product as measured by the amount of 490 nm absorbance is directly proportional to the number of living cells in culture. Cells were seeded into 96-well or 384-well clear plates in a volume of 200 μL (96-well) or 50 μL (384-well) at optimized densities ranging from 1,000 to 40,000 cells per well for 96-well plates or 1,200 to 25,000 cells per well for 384-well plates depending on cell-line. After 4-6 hr recovery, serially diluted compounds in DMSO were added to the cells using (0.1% v/v final DMSO concentration). Cells were then grown at 37° C. in a humidified incubator with 5% CO2 for 72 hr. A 20:1 [3-(4,5-dimethylthiazol-2-yl)-5-(3-carboxymethoxyphenyl)-2-(4-sulfophenyl)-2H-tetrazolium](MTS):phenazine methosulfate (PMS) solution in DPBS was made immediately before use, added to each well, and cells were incubated for 1.5 hr at 37° C. The absorbance at 490 nm was then measured using a platereader. Absorbance values were normalized as percent of control (cells incubated in the presence of 0.1% v/v DMSO). Sigmoidal dose-response curves were plotted using log(inhibitor) vs. response—Variable slope (four parameters) model with a top value constrained to 100% (GraphPad Prism version 6.00 for Windows, GraphPad Software, La Jolla California USA). […] Curves for compounds that reached a plateau were matched exactly to the measurement points. […] To determine potential of compounds of the invention to affect viability of hematological cancers, cell lines representing various tumor types were selected and tested. Human cell lines tested were: MOLM-13 (acute myeloid leukemia (AML)), MV4-11 (AML), U-2932 (ABC-diffuse large B cell lymphoma), U-937 (histiocytic lymphoma), U-266 (multiple myeloma), RPMI-8226 (multiple myeloma), CMK (megakaryoblastic cell line), SU-DHL-4 (GCB-diffuse large B cell lymphoma), KG1 (AML), Mec-1 (chronic B-cell leukemia), MOLM-16 (AML), Jeko (B-cell lymphoma), WSU-DLCL2 (B-cell lymphoma), JJN3 (plasma cell leukemia), SU-DHL-6 (GCB-diffuse large B cell lymphoma), and Z-138 (mantle cell lymphoma). In addition, two murine cell lines were tested: A20 […].

[2] = system: P-PDK1; assay: Pathway modulation in MV4-11 tumor xenografts, pPDK1; format: in vivo, mice; details: MV4-11 tumors, 50 mg/kg oral, 8 hrs
Text: MV4-11 cells propagated in vitro were implanted subcutaneous into the right flank of 9-week old female NCr nu/nu mice. On the day of implant, MV4-11 cells were harvested during log phase growth and resuspended in phosphate buffered saline (PBS) containing 50% Matrigel™ (BD Biosciences) at a concentration of 1×10^8 cells/mL. […] Two weeks after implantation, animals were assigned to individual groups of 3 animals with and average tumor volume of approximately 200 mm^3. […] Eight hours post-dose, full blood volume was collected by cardiac puncture under isoflurane anesthesia and tumors were excised and snapfrozen in liquid nitrogen and stored at −80° C. until further analysis. Tumors were pulverized in liquid nitrogen using a Biopulverizer and split into two sample tubes: one for Western blot analysis and one for analysis of compound levels by LC-MS/MS. […] For MS analysis, tumor samples were homogenized with a Virsonic 100 ultrasonic homogenizer. Each sample was first weighed, and then an appropriate volume of 20:80 methanol:water was added to make a 9 mL/gram sample. Samples were then homogenized on ice, and stored frozen until analysis. Standards were prepared in BALB/c mouse plasma or blank homogenized tumor tissue. Standards and samples were analyzed on a PE Sciex API4000 instrument and compound concentration was quantified and back-calculated to ng compound per g tumor tissue and converted to M concentration assuming 1 g tumor tissue equals 1 mL volume.

[3] = system: AKT phosphorylation; assay: Pathway modulation in MV4-11 tumor xenografts, pAKT; format: in vivo, mice; details: MV4-11 tumors, 50 mg/kg oral, 8 hrs
Procedure: (§1) MV4-11 cells propagated in vitro were implanted subcutaneous into the right flank of 9-week old female NCr nu/nu mice. On the day of implant, MV4-11 cells were harvested during log phase growth and resuspended in phosphate buffered saline (PBS) containing 50% Matrigel™ (BD Biosciences) at a concentration of 1×10^8 cells/mL. Xenografts were initiated by subcutaneously implanting 1×10^7 MV-4-11 cells (0.1 mL suspension) into the right flank of each test animal and tumors were monitored as their volumes approached the target range of 175 to 225 mm^3. Two weeks after implantation, animals were assigned to individual groups of 3 animals with and average tumor volume of approximately 200 mm^3. […] Eight hours post-dose, full blood volume was collected by cardiac puncture under isoflurane anesthesia and tumors were excised and snapfrozen in liquid nitrogen and stored at −80° C. until further analysis. Tumors were pulverized in liquid nitrogen using a Biopulverizer and split into two sample tubes: one for Western blot analysis and one for analysis of compound levels by LC-MS/MS. Western blot analysis was performed as described above. […] Standards and samples were analyzed on a PE Sciex API4000 instrument and compound concentration was quantified and back-calculated to ng compound per g tumor tissue and converted to M concentration assuming 1 g tumor tissue equals 1 mL volume.

[4] = Compound concentration in MV4-11 tumors by LC-MS/MS; format: in vivo, mice; details: 50 mg/kg oral
Procedure: as §1

## CS(=O)(=O)N1CCN(Cc2cc3nc(-c4cccc5[nH]ncc45)nc(N4CCOCC4)c3s2)CC1 [GDC-0941, pictilisib]
[1]
  pEC50: 5.21 to 7.30
[2]
  inhibition of P-PDK1: 25%
  inhibition of PDK1 in tumors: 45%
[3]
  inhibition of P-AKT in tumors: no inhibition
[4]
  tumor exposure: 0.4 to 1.4 mM
